Values joined by “and” are separate entries in the source; they are usually repeats but may differ in a detail not shown here. Equal values may be shown once. Where a name gives a salt, the structure may show the parent alone. Read-outs that look alike come from different tables or passages of the source.
Columns and labels:
[1] = in vivo; design: species or system male Balb/c mice; details: mouse, 10 mg/kg
Protocol: Method for FIG. 12. […] The small intestine with content of each animal for were harvested and placed per animal per tissue into a tube. The small intestine with content samples were snap frozen in dry ice and then stored at −80° C. until bioanalysis. All the samples were labeled with detailed information such as study number, animal number, matrix, and time points of collection and date of collection. In addition, the extra animals obtained for the study, but not placed on study were used for collection of small intestine with content. The resulting small intestine with content samples were then applied to the development of the bioanalytical method and sample bioanalysis in this study. Bioanalytical analysis was performed on samples by LC-MS/MS.
For analyzing the contents of the small intestine, small intestine samples were homogenized by adding saline (1 g small intestine: 5 mL saline). Small intestine homogenates (50 μL) were transferred to tubes and 250 μL internal standard (IS) working solution (50 ng/mL Carvedilol) was added to each sample. After vortexing for 1 minute and centrifuging for 5 minutes at 15,000 rpm, 100 μL aliquots of supernatant were transferred to glass autosampler vials.
Method for FIG. 13. […] The ratios versus time are shown.
At 1 hour, the concentration in the small intestine peaked at 38,941±4703 ng/gram of tissue (FIG. 12).

[2] = system: LPS-induced IL-6 release, NR8383 cells; experiment: LPS-induced IL-6 release in NR8383 rat macrophages (ELISA); assay type: cell-based; details: Macrophage
Protocol: Method for FIG. 10. […] After 8 hours, supernatants were collected for IL-6 measurement by ELISA using immunoassay kit (R&D Systems, Minneapolis, MN) according to manufacturer's instructions.
The inhibition of IL-6 induction assay was performed according to the Method described for FIG. 10.
(§1) PDE4 and PDE3 inhibition results in subsequent down-regulation of pro-inflammatory cytokines/chemokines and its regulators, and experiments were conducted to confirm such down-regulation by brilacidin in ex vivo cell-based assays. In these assays, cells were exposed to brilacidin 45 minutes before an 8-hour lipopolysaccharide (LPS) stimulation in the presence of brilacidin; cytokine/enzyme concentrations were determined by ELISA using a standard immunoassay kit.

[3] = target: human PDE3A (Homo sapiens, UniProt Q14432); experiment: PDE-Glo phosphodiesterase assay, PDE3; assay type: biochemical; details: 2.75 ng PDE3A, 1 μM cAMP substrate, 15 min pre-incubation; read-out: IC50, inhibition of PDE3
human PDE3A, sequence (Q14432 whole entry): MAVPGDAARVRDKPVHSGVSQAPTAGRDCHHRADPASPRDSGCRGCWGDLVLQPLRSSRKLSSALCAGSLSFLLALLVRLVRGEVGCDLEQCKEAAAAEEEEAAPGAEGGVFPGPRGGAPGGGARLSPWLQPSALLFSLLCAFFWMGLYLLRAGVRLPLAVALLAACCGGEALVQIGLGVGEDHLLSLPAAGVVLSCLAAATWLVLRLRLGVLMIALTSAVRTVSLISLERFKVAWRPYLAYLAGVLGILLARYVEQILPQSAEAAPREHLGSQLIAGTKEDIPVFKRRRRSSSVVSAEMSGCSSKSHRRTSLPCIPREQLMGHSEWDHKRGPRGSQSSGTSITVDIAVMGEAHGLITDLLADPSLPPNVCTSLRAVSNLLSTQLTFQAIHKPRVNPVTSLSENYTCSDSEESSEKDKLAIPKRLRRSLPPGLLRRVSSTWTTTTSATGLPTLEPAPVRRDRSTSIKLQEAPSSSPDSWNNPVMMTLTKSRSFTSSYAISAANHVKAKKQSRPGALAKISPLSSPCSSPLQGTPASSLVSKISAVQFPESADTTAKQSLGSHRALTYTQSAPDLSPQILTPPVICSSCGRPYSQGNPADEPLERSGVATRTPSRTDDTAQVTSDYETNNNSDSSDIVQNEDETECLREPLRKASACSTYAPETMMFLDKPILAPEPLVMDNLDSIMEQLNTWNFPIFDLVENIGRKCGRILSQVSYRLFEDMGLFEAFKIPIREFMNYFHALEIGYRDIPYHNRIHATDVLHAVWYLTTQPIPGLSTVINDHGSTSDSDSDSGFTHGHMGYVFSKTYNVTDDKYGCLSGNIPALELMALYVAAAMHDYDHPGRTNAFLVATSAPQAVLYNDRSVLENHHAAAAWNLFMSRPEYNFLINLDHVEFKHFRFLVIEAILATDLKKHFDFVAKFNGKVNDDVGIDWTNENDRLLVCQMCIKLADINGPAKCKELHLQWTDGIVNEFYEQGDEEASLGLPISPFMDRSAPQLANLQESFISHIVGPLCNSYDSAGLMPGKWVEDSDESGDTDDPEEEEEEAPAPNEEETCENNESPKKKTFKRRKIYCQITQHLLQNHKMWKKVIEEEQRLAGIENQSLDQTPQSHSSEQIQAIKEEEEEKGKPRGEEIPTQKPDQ
Protocol: Method for FIG. 3. […] The compounds and PDE3A were mixed and pre-incubated at room temperature for 15 minutes. Substrate was added and the reaction was incubated for 7 minutes at room temperature. Data are presented as luminescence units (RLU).
Method for FIG. 4. Phosphodiesterase inhibition assays of PDE3 were performed using PMX-60056. The PDE-Glo phosphodiesterase assay (Promega, Madison, WI, USA Catalog No. V1361) was performed according to manufacturer's instruction using 2.75 ng of PDE3A, 1 μM cAMP substrate and PMX60056. The compounds and PDE3A were mixed and pre-incubated at room temperature for 15 minutes. Substrate was added and the reaction was incubated for 7 minutes at room temperature. Data are presented as luminescence units (RLU).
The compounds and PDE3A were mixed and pre-incubated at room temperature for 15 minutes. Substrate was added and the reaction was incubated. […]
as §1

[4] = system: acetic acid-induced colitis; assay type: in vivo; details: for reduction of UC score: not significantly
Protocol: (§2) Method for FIG. 14. […] Balb/c mice were fasted for 24 hours. Colitis was induced by injecting 200 μL of 4% acetic acid into the rectum. […] Another group of animals were treated with 5-ASA (5-aminosalicylic acid or mesalamine), and another received no treatment. Seven days after the first dose, five cm of intestine were cleaned in cold saline then weighed.
as §2, with “15.” for “14.”, “dose the colon was examined visually for mucosal injury and scored according to the Table below.” for “dose, five cm of intestine were cleaned in cold saline then weighed.”
Briefly, colitis was induced by injecting 4% acetic acid into the rectum.

[5] = system: LPS-induced MCP-1 release, NR8383 cells; experiment: LPS-induced MCP-1 release in NR8383 rat macrophages (ELISA); assay type: cell-based
Protocol: Method for FIG. 7. […] After 8 hours, supernatants were collected for MCP-1 measurement by ELISA. MCP-1 was measured using an immunoassay kit according to manufacturer's instructions (Thermo Scientific, Rockford. IL).
Method for FIG. 8. MCP-1 assays were performed using PMX-60056. Rat macrophages (NR8383) were pretreated with […] with concentrations shown for 45 minutes, followed by 1 μg/ml LPS treatment from E. coli (Sigma, St. Louis, MO) for 8 hours. After 8 hours, supernatants were collected for MCP-1 measurement by ELISA. MCP-1 was measured using an immunoassay kit according to manufacturer's instructions (Thermo Scientific, Rockford, IL).
The MCP-1 inhibition assay was performed according to the Method described for FIG. 7.
The MCP-1 inhibition assay was performed according to the Method described for FIG. 8.
as §1

N=C(N)NCCCCC(=O)Nc1cc(C(F)(F)F)cc(NC(=O)c2cc(C(=O)Nc3cc(C(F)(F)F)cc(NC(=O)CCCCNC(=N)N)c3O[C@@H]3CCNC3)ncn2)c1O[C@@H]1CCNC1 [PMX-30063, N^4,N^6-bis(2-((R)-pyrrolidin-3-yloxy)-3-((4-carbamoylbutyl)guanidine)-5-(trifluoromethyl)phenyl)pyrimidine-4,6-dicarboxamide tetrahydrochloride salt]
total exposure (AUC) in the blood upon oral administration ([1]; male, Balb/c): less than 0.5%
Cmax ([1]; male, Balb/c, po): 38900 ng/g
Kp ([1]; male, Balb/c, po): 2240 to 4320
Tmax ([1]; male, Balb/c, po): 60 min
half-life ([1]; male, Balb/c, po): 47.4 min
AUC(0-t) ([1]; po): 86089 ng·h/g
AUC(0-∞) ([1]; po): 89525 ng·h/g
MRT(0-∞) ([1]; po): 1.52 H
IC50 ([2]; NR8383 cells, ELISA, 45 min pretreatment, 8-hour LPS, read-out: IC50, inhibition of LPS-induced IL-6 release): 274 nM
inhibition at 0.5 µM ([2]; at 0.5 μM, NR8383, LPS 1 μg/ml 8 h, read-out: decrease in IL-6 levels / inhibition of LPS induced IL-6 production): ~50%
IC50 [3]: ~1800 nM and 1800 nM
reduction of UC score ([4]; 40 mg/kg (so in the source) intrarectally): 67%
reduction of median UC score ([4]; 100 mg/kg intrarectally): 33%
reduction of UC score ([4]; 200 mg/kg intrarectally): 67%
reduction of intestine weights compared to untreated controls ([4]; 400 mg/kg intrarectally): 17%
ulcerative colitis score compared to untreated controls (in words) ([4]; 400 mg/kg intrarectally): significantly reduced
tolerability (in words) ([4]; mouse, in vivo): well-tolerated
ulcerative colitis score (in words) ([4]; rectal administration, 100, 200, 400 mg/kg): dose dependent decrease
intestine weights compared to untreated controls (in words) ([4]; rectal administration, 100-400 mg/kg once daily): reduced, but not significantly
effect on MCP-1 induction after LPS stimulation (in words) ([5]; NR8383, 45 min pretreatment, LPS 1 μg/ml 8 h): strong inhibition
IC50 ([5]; Rattus norvegicus, Macrophage, NR8383 cells, ELISA, 45 min pretreatment, 8-hour LPS, read-out: IC50, inhibition of LPS-induced MCP-1 release): 750 nM
decrease in MCP-1 levels ([5]; at 0.5 μM, NR8383, LPS 1 μg/ml 8 h): ≥ 25%

Reference: patent US20230310435A1, “HOST DEFENSE PROTEIN (HDP) MIMETICS FOR PROPHYLAXIS AND/OR TREATMENT OF INFLAMMATORY DISEASES OF THE GASTROINTESTINAL TRACT” (priority 2015, published 2023)
